# Measured values from patent US20050106592A1, “Method for identifying a pharmacologically active substance” (priority 2002, published 2005).
# How the values were obtained:
# [1] = system: normotensive Wister rats; experiment: bradykinin-potentiating effect: blood pressure measurement in anaesthetized normotensive rats; type: in vivo, rat
# Method: These experiments were conducted with normotensive rats and the short-time decrease of blood pressure induced by bradykinin (and caused by vasodilatation) was measured. […] Furthermore, S545 (also corresponds to proANP48-57) was also tested in vivo at hypertensive rats (FIG. 7).
# In the in vivo experiments with normotensive rats the animals were previously anaesthetized and after blood pressure stabilization treated with a constant amount of bradykinin. Subsequently, either Captopril or human BPP were administered, again followed by a constant amount of bradykinin. Afterwards the maximal blood pressure drop was determined and, on the basis of bradykinin as a factor 1, the potentiating factor was determined. In the same way, the systolic and diastolic blood pressure, the percentage middle pressure decrease and the time required to come back to the baseline values were measured (see tables 4a to 4j). A detailed experimental description is given below.
# The trials were conducted on female anaesthetized normotensive Wister rats with weight ranging from 210 to 240 g.
# The peptide pANP48-57 used for the in vivo assays was synthesized by Biosynthan (Berlin) with a HPLC-determined purity of 98%. […]
# The middle pressure was determined from the measured diastolic (pd) and systolic (ps) blood pressure by using the following formula: pm=(ps−pd)×0.42+pd.
# [2] = target: T1, ACE from pig kidney (EC 3.4.15.1) (Sus scrofa, UniProt F1RRW5); type: biochemical; conditions: relative to Captopril
# T1 construct: angiotensin-converting-enzyme derived from pig kidney; purchased Sigma; host or cells: pig kidney (tissue-derived enzyme)
# T1 sequence (F1RRW5 34-1309): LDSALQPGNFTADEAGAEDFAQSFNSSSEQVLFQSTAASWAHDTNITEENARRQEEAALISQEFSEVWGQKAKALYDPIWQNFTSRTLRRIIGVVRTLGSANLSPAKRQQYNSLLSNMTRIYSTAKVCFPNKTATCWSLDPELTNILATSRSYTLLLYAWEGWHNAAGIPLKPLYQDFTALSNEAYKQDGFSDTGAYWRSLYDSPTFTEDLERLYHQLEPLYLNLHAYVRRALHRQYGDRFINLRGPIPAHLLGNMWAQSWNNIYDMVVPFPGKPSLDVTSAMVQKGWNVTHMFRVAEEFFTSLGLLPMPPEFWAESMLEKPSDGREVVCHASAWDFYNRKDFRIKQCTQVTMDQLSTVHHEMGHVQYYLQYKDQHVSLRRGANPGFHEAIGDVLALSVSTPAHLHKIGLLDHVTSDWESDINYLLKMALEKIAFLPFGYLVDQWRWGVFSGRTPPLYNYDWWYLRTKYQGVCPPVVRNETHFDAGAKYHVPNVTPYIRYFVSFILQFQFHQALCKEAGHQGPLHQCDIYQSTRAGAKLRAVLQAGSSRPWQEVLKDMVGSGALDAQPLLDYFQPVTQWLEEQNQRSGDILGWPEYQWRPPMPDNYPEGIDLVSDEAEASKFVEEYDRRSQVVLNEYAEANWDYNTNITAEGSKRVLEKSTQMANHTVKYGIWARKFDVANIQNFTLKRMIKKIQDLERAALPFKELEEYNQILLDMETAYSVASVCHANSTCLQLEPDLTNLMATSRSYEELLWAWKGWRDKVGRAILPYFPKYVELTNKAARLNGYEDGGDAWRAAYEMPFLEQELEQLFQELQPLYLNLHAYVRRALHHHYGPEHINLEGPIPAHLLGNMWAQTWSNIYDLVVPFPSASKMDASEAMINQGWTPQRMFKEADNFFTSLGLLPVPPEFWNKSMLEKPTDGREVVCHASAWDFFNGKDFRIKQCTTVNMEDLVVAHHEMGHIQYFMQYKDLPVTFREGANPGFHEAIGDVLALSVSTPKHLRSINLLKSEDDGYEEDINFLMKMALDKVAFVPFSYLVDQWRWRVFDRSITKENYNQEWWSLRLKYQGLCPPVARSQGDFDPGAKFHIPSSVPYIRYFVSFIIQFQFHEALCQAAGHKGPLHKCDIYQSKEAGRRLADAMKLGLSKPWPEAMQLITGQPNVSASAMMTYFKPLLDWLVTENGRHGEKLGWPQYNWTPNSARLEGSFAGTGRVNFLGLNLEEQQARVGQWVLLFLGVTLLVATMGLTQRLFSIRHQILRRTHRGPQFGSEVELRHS
# Method: These peptides were investigated for their inhibitory effect using an in vitro-ACE-inhibitor-assay with an angiotensin-converting-enzyme derived from pig kidney. Hippuryl-histidyl-leucin was used as a substrate.
# The assay was performed in 96 well HTRF-plates (Packard). The concentrations used for each well were: 1 mU ACE from pig kidney (EC 3.4.15.1 (Sigma)) in 30 μl of assay buffer (25 mM HEPES; 0,3 M NaCl, pH 8.2) and 20 μl inhibitor dissolved in assay buffer (0.35-200 μM). The reaction was started by adding 50 μl of 2 mM hippuryl-histidyl-leucin (Sigma) in assay buffer. The reaction was performed at room temperature (22° C.) for 30 minutes and terminated by adding 50 μl 1 M NaOH. Afterwards 50 μl of 0.5% ortho-phtalaldehyd (Sigma) in methanol were added, 5 minutes later followed by 50 μl of 2.5 M HCl-solution to stabilize the developed fluorescence product.
# The results were used to calculate the % inhibition. The IC50-values were determined graphically from a curve showing the dose-reaction ratio.
# In order to minimize errors due to time-dependent differences, all pipetting steps were performed in a precise time schedule.
structure (smiles),measurement,setting,value
CC(C)C[C@H](NC(=O)[C@H](C)N)C(=O)N[C@@H](CO)C(=O)N1CCC[C@H]1C(=O)N[C@@H](CC(C)C)C(=O)N1CCC[C@H]1C(=O)N[C@@H](CCC(=O)O)C(=O)N[C@H](C(=O)N1CCC[C@H]1C(=O)N1CCC[C@H]1C(=O)O)C(C)C [Peptide S545],molecular concentration required for the bradykinin-potentiating effect in vivo in comparison to Captopril,"[1]; in vivo, relative to Captopril",10 fold
same,bradykinin-potentiating effect (short-time decrease of blood pressure induced by bradykinin),"[1]; normotensive rats, anaesthetized, i.v.",concentration dependent bradykinin-potentiating
same,dose necessary in the ACE-assay to reach the same effect as with Captopril,[2],1000 fold
